Source: the supplement of paper PMC11208160

Assay: recombinant barcode read abundance after kanamycin selection (control-corrected) (log10(CPM+1)); higher = more efficient recombination; sequences stand for … in AGTGCAGAGAAAATCGGCCAGTTTTCTCTGCCTGCAGTCCGCATGCCGT…AGATTTATGCAGCGGACTGCCTTTCTCCCAAAGTGATAAACCGGACAGTATCATGGACCGGTTTTCCCGGTAATCCGTATTTGCAAGGTTGGTTTCACT; site = the 11-nt target
In short: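 Recombination efficiency draws on barcodes counted at recombinant junctions in a pooled E. coli screen of targets paired with IS621 bridge RNA target-binding loops. The counts were converted to counts per million, averaged and corrected against the chloramphenicol/ampicillin LB agar control, then reported as log10(CPM+1). Selection plates held chloramphenicol/ampicillin/kanamycin with 0.1 mM IPTG, with two replicates per condition.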
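Note: IS621 recombinase and bridge RNA in Escherichia coli cells.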

Sequence	recombinant barcode read abundance (log10)
CTCATAACTTGGGTTCTAACCTGTTGCCG (site CTCATAACTCG)	0.328
CTCATAACTTGGGTTCTAACCTGTTGCCG (site CTCTAAACTCG)	0.2
CTCATATCTTGGGTTCTAACCTGTTGCTT (site CTCATATCTAA)	1.18
CTCATATCTTGGGTTCTAACCTGTTGCTT (site GAATGGACTTC)	0.0724
CTCCAACCTTGGGTTCTAACCTGTTGCCT (site CGCCCACCTAG)	0.144
CTCCAACCTTGGGTTCTAACCTGTTGCCT (site CTCCAACCTAG)	1.54
CTCCAACCTTGGGTTCTAACCTGTTGCGG (site CTCCAACCTCC)	2.14
CTCCAACCTTGGGTTCTAACCTGTTGCGG (site CTCCAGCCTCC)	0.461
CTCCATACTTGGGTTCTAACCTGTTGCCT (site CTCCATACTAG)	0.814
CTCCATACTTGGGTTCTAACCTGTTGCCT (site CTCCATCCTAG)	0.0983
CTCCATACTTGGGTTCTAACCTGTTGCCT (site CTCCATGCTAG)	0.23
CTCCATACTTGGGTTCTAACCTGTTGCCT (site CTCCATTCTAG)	0.0874
CTCCGAACTTGGGTTCTAACCTGTTGCAG (site CTCCGAACTCT)	1.12
CTCCGAACTTGGGTTCTAACCTGTTGCAG (site TCATATCCTAG)	0.174
CTCCGGACTTGGGTTCTAACCTGTTGCCT (site CTCCGGACTAG)	2.02
CTCCGGACTTGGGTTCTAACCTGTTGCCT (site CTCCGTACTAG)	0.276
CTCCGTACTTGGGTTCTAACCTGTTGCCT (site CTCCGGACTAG)	0.0835
CTCCGTACTTGGGTTCTAACCTGTTGCCT (site CTCCGTACTAG)	0.858
CTCCTAGCTTGGGTTCTAACCTGTTGCTT (site CTCCGAGCTTA)	0.00954
CTCCTAGCTTGGGTTCTAACCTGTTGCTT (site CTCCTAGCTAA)	0.277
CTCCTCCCTTGGGTTCTAACCTGTTGCCT (site CTCCTCCCTAG)	1.29
CTCCTCCCTTGGGTTCTAACCTGTTGCCT (site CTCCTCTCTAG)	0.275

Sequence	recombinant barcode read abundance (log10)
CTCCTCTCTTGGGTTCTAACCTGTTGCAT (site AAGTGAGCTTG)	0.0369
CTCCTCTCTTGGGTTCTAACCTGTTGCAT (site CTCCTCTCTAT)	2.03
CTCGAACCTTGGGTTCTAACCTGTTGCTG (site CTCGAACCTCA)	1.93
CTCGAACCTTGGGTTCTAACCTGTTGCTG (site CTCGAATCTTA)	0.077
CTCGGAACTTGGGTTCTAACCTGTTGCCT (site CTCGGAACTAG)	0.374
CTCGGAACTTGGGTTCTAACCTGTTGCCT (site CTCGGACCTAG)	0.257
CTCGGAACTTGGGTTCTAACCTGTTGCCT (site CTCGGAGCTAG)	0.325
CTCGGAACTTGGGTTCTAACCTGTTGCCT (site CTCGGATCTAG)	0.366
CTCGGACCTTGGGTTCTAACCTGTTGCCT (site CTCGGAACTAG)	0.209
CTCGGACCTTGGGTTCTAACCTGTTGCCT (site CTCGGACCTAG)	2.42
CTCGGACCTTGGGTTCTAACCTGTTGCCT (site CTCGGAGCTAG)	0.147
CTCGGACCTTGGGTTCTAACCTGTTGCCT (site CTCGGATCTAG)	0.263
CTCGGATCTTGGGTTCTAACCTGTTGCCT (site CTCGGAACTAG)	0.0461
CTCGGATCTTGGGTTCTAACCTGTTGCCT (site CTCGGACCTAG)	0.391
CTCGGATCTTGGGTTCTAACCTGTTGCCT (site CTCGGAGCTAG)	0.0938
CTCGGATCTTGGGTTCTAACCTGTTGCCT (site CTCGGATCTAG)	1.3
CTCGGATCTTGGGTTCTAACCTGTTGCTA (site CTCGGATCTAA)	0.135
CTCGGATCTTGGGTTCTAACCTGTTGCTA (site CTCGGATCTCA)	0.15
CTCGGATCTTGGGTTCTAACCTGTTGCTA (site CTCGGATCTGA)	0.0177
CTCGGATCTTGGGTTCTAACCTGTTGCTA (site CTCGGATCTTA)	0.67
CTCGGATCTTGGGTTCTAACCTGTTGCTC (site CTCGGATCTAA)	0
CTCGGATCTTGGGTTCTAACCTGTTGCTC (site CTCGGATCTCA)	0.0519

Sequence	recombinant barcode read abundance (log10)
CTCGGATCTTGGGTTCTAACCTGTTGCTC (site CTCGGATCTGA)	0.991
CTCGGATCTTGGGTTCTAACCTGTTGCTC (site CTCGGATCTTA)	0.138
CTCGGATCTTGGGTTCTAACCTGTTGCTG (site CTCGGATCTAA)	0.296
CTCGGATCTTGGGTTCTAACCTGTTGCTG (site CTCGGATCTCA)	1.08
CTCGGATCTTGGGTTCTAACCTGTTGCTG (site CTCGGATCTGA)	0
CTCGGATCTTGGGTTCTAACCTGTTGCTG (site CTCGGATCTTA)	0.133
CTCGTACCTTGGGTTCTAACCTGTTGCGG (site CTCGTACCTCC)	2.52
CTCGTACCTTGGGTTCTAACCTGTTGCGG (site CTCGTAGCTCC)	0.0696
CTCGTAGCTTGGGTTCTAACCTGTTGCCT (site AGTAGTTCTCT)	0.223
CTCGTAGCTTGGGTTCTAACCTGTTGCCT (site CTCGTAGCTAG)	0.651
CTCGTAGCTTGGGTTCTAACCTGTTGCGG (site CTCGTACCTCC)	0.0414
CTCGTAGCTTGGGTTCTAACCTGTTGCGG (site CTCGTAGCTCC)	1.23
CTCGTCACTTGGGTTCTAACCTGTTGCCT (site CTCGTAACTAG)	0.106
CTCGTCACTTGGGTTCTAACCTGTTGCCT (site CTCGTCACTAG)	1.91
CTCGTCACTTGGGTTCTAACCTGTTGCCT (site CTCGTGACTAG)	0.0882
CTCGTCACTTGGGTTCTAACCTGTTGCCT (site CTCGTTACTAG)	0.0923
CTCGTGACTTGGGTTCTAACCTGTTGCCT (site CTCGTAACTAG)	0.682
CTCGTGACTTGGGTTCTAACCTGTTGCCT (site CTCGTCACTAG)	0
CTCGTGACTTGGGTTCTAACCTGTTGCCT (site CTCGTGACTAG)	1.13
CTCGTGACTTGGGTTCTAACCTGTTGCCT (site CTCGTTACTAG)	0.335
CTCTAAACTTGGGTTCTAACCTGTTGCCA (site CTCTAAACTTG)	0.106
CTCTAAACTTGGGTTCTAACCTGTTGCCA (site CTCTACACTTG)	0.671
